Source: publication PMC9239272 (mBio, 2022)

Experiments:
SARS2 M^pro [1] = type: cell-based, SARS-CoV-2
229E M^pro = type: cell-based, HCoV-229E
NL63 M^pro [2] = type: cell-based, HCoV-NL63; details: 2-fold dilution series beginning at 100 μM
SARS2 M^pro [3] = type: cell-based, SARS-CoV-2; remark: listed apart in the source
NL63 M^pro [4] = details: in vitro studies; cited from earlier work

Cc1ccc(NC(=O)c2ccc(CN3CCN(C)CC3)cc2)cc1Nc1nc(-c2cccnc2)cs1 [masitinib]
dose responsiveness of WT Luc reporter (SARS2 M^pro [1]): tested negative at all concentrations

GC376
dose responsiveness of WT Luc reporter (SARS2 M^pro [1]): causes increased reporter expression | increase in signal of luciferase construct compared with eGFP construct (SARS2 M^pro [1]): ~ 3 fold | maximal signal increase over background (SARS2 M^pro [1]): 100 fold | maximal signal increase over background (229E M^pro): 72 fold | maximal signal increase over background (NL63 M^pro [2]): 24 fold | restoration of eGFP fluorescence of WT reporter (SARS2 M^pro [3]): strong restoration of expression and eGFP fluorescence | cell viability (293T cells; 48 h incubation, wide range of concentrations): cell viabilities remain consistent

CC(C)(C)NC(=O)N[C@H](C(=O)N1C[C@H]2[C@@H]([C@H]1C(=O)NC(CC1CCC1)C(=O)C(N)=O)C2(C)C)C(C)(C)C (some centres unmarked) [boceprevir]
increase in signal of luciferase construct compared with eGFP construct (SARS2 M^pro [1]): ~ 3 fold | maximal signal increase over background (SARS2 M^pro [1]): 16 fold | maximal signal increase over background (229E M^pro): 4.3 fold | maximal signal increase over background (NL63 M^pro [2]): 1.9 fold | restoration of eGFP fluorescence of WT reporter (SARS2 M^pro [3]): comparatively modest increase in signal | IC50 (NL63 M^pro [4]): ~100 µM

GRL-0496
dose responsiveness of WT Luc reporter (SARS2 M^pro [1]): clear positive dose response | cytotoxicity (293T cells): no cytotoxicity

CCCCCCNC(=O)n1cc(F)c(=O)[nH]c1=O [Carmofur]
dose responsiveness of WT Luc reporter (SARS2 M^pro [1]): tested negative at all concentrations

O=c1c2ccccc2[se]n1-c1ccccc1 [ebselen]
dose responsiveness of WT Luc reporter (SARS2 M^pro [1]): tested negative at all concentrations

CCOc1ccc2nc3cc(N)ccc3c(N)c2c1 [Ethacridine]
dose responsiveness of WT Luc reporter (SARS2 M^pro [1]): tested negative at all concentrations

CC(C)(C)[C@H](NC(=O)C(F)(F)F)C(=O)N1C[C@H]2[C@@H]([C@H]1C(=O)N[C@H](C#N)C[C@@H]1CCNC1=O)C2(C)C [nirmatrelvir]
dose responsiveness of WT Luc reporter (SARS2 M^pro [1]): highest reporter signals at all tested concentrations
